Assay results reported in patent publication US20110028509A1, “Sulfonamides” (MERCK SERONO SA, priority 2008, published 2011).

Key:
CXCR3 [1] = target: T1, CXCR3 (Homo sapiens, UniProt P49682); assay: CXCR3 Ca2+ mobilization (FLIPR), stable hCXCR3-CHO cell line, I-TAC stimulated; format: cell-based; set-up: host or cells: CHO cells stably expressing hCXCR3; conditions: hCXCR3-CHO cells, I-TAC 100 nM stimulated Ca2+ response; read-out: Ca-ITAC
T1 sequence (P49682 1-368): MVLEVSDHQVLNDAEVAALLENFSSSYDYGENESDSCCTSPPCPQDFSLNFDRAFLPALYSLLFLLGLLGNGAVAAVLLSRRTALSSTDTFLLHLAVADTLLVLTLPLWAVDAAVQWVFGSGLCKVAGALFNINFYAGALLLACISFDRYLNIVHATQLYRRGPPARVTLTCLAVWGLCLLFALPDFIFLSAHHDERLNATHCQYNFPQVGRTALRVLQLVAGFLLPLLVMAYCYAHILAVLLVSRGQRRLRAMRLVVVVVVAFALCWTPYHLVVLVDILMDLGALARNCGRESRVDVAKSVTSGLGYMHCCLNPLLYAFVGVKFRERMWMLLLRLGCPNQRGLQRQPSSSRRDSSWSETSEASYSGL
Procedure: Human chinese hamster ovary (CHO) cell line stably expressing hCXCR3 was purchased from Euroscreen (Belgium) and culture in HAM's F12 (Invitrogen) containing 10% heat inactivated fetal calf serum (Cancerra, Australia), 50 units ml−1 penicillin, 50 μml−1 streptomycin, (Invitrogen, USA) and 400 μg/ml geneticin (G418) (Calbiochem, San Diego), according to the manufacturer.
CXCR3Ca^2+ mobilization was measured using a stable hCXCR3—CHO cell line and a microtiter-plate based assay using FLIPR^TETRA™ (Molecular Devices). In more detail, cells were harvested and plated into black 384-well plates (Becton-Dickinson) at a density of 15 000 cells per well and grown in the incubator for 18 hours. On the next day the media was aspirated and replaced with the cell loading buffer (HBSS—(Invitrogen) based buffer containing calcium indicator and signal enhancer from a commercial Ca2+ assay kit (Becton Dickinson). The plates were incubated for 60 minutes in the incubator, the test compounds were added and the plates equilibrated for 20 minutes at room temperature.
Plates were placed into FLIPR and the CXCR3 agonist (I-TAC, 100 nM) stimulated fluorescence change was quantitated. The activity of CXCR3 antagonists was determined as percent of the CXCR3 ligand I-TAC in the absence of the test compounds (=100% activity).

CXCR3 [2] = target: T1, CXCR3; assay: Chemotaxis assay ITAC (CXCL11), L1.2-CXCR3 cells; format: cell-based; set-up: expressed in transfected cells; conditions: 1 nM CXCL11 (I-TAC), 4 hours
Procedure: Human CXCR3 cDNA was amplified by PCR from a human cells cDNA library (Clontech) and subcloned into pcDNA3.1 (Invitrogen). Murine pre-B L1.2 cells were transfected with hCXCR3-pcDNA3.1 and were grown at 37° C., 5% CO2 in RPMI 1640 medium (Invitrogen, USA) supplemented with 5% heat inactivated fetal calf serum (Cancerra, Australia), 2 mM glutamine (Invitrogen), 50 units ml−1 penicillin, 50 μml−1 streptomycin. Stable transfectant clonal populations were selected using 800 μg/ml geneticin.
L1.2-CXCR3 cells were grown for 24 hours at 0.5×10^6 cells/ml in chemotaxis medium containing 5 mM butyric acid (Sigma). Compounds were on one hand mixed with 1 nM of CXCL11 (I-TAC) in phenol-red free RPMI 1640 (invitrogen) supplemented with 5% fetal bovine serum in presence of 1% DMSO. The CXCL11/compounds mixture was then added to lower chambers of chemotaxis 96 well microplates (neuroprobe), and framed filters ([…] pore size) were put on top of the lower chambers. Compounds were on the other hand mixed with L1.2 CXCR3 cells and incubated in chemotaxis medium at 1.5×10^6 cells/ml in presence of 1% DMSO at 37° C., 5% CO2 for 30 minutes. Cells/compounds mixture was then added on top of the frame filters and migration was performed at 37° C., 5% CO2 for 4 hours. The number of migrated cells in the bottom chamber was determined using the CyQuant GR dye (Molecular Probe), according to the manufacturer.

`CCOc1ccc(S(=O)(=O)N(Cc2ccc(C(=O)O)c(F)c2)Cc2ccccn2)cc1` [Example 66, 4-{[(4-Ethoxy-benzenesulfonyl)-pyridin-2-ylmethyl-amino]-methyl}-2-fluoro-benzoic acid] gave an IC50 (CXCR3 [1]) of 2000 nM and an IC50 (CXCR3 [2]) of 4600 nM.

For `N#Cc1ccc(S(=O)(=O)N(Cc2ccc(C(=O)O)c(F)c2)Cc2ccccn2)cc1` [Example 67, 4-{[[(4-cyanophenyl)sulfonyl](pyridin-2-ylmethyl)amino]methyl}-2-fluorobenzoic acid], the IC50 (CXCR3 [1]) was 505 nM and the IC50 (CXCR3 [2]) was 3060 nM.

`Cc1nc(CN(Cc2ccc(-c3nnn[nH]3)cc2)S(=O)(=O)c2ccc(Cl)cc2)cs1` [Example 68, 4-chloro-N-(2-methyl-thiazol-4-ylmethyl)-N-[4-(2H-tetrazol-5yl)benzyl]benzenesulfonamide] showed an IC50 (CXCR3 [1]) of 2000 nM and an IC50 (CXCR3 [2]) of 130 nM.

`O=S(=O)(c1ccc(Cl)cc1)N(Cc1ccc(-c2nnn[nH]2)cc1)Cc1cccnc1` [Example 71, 4-chloro-N-(pyridin-3-ylmethyl)-N-[4-(2H-tetrazol-5yl)benzyl]benzene sulfonamide] gave an IC50 (CXCR3 [1]) of 16000 nM and an IC50 (CXCR3 [2]) of 1540 nM.

`Cc1nc(CN(Cc2ccc(-c3nnn[nH]3)cc2)S(=O)(=O)c2ccc(Cl)cc2)no1` [Example 73, 4-chloro-N-(5-methyl-1,2,4-oxadiazol-3-ylmethyl)-N-[4-(2H-tetrazol-5yl)benzyl]benzene sulfonamide] was tested, and the IC50 (CXCR3 [1]) was 12000 nM and the IC50 (CXCR3 [2]) was 3240 nM.

For `O=S(=O)(c1ccc(Cl)cc1)N(Cc1ccc(-c2nnn[nH]2)cc1)Cc1nccc2ccccc12` [Example 74, 4-chloro-N-(isoquinolin-1-ylmethyl)-N-[4-(2H-tetrazol-5yl)benzyl]benzene sulfonamide], the IC50 (CXCR3 [1]) was 2000 nM and the IC50 (CXCR3 [2]) was 666 nM.

For `O=S(=O)(c1ccc(Cl)cc1)N(Cc1ccc(-c2nnn[nH]2)cc1)Cc1ccc2ccccc2n1` [Example 75], the IC50 (CXCR3 [1]) was 2000 nM and the IC50 (CXCR3 [2]) was 2520 nM.

Work on `CCOc1ccc(S(=O)(=O)N(Cc2ccc(C(=O)N[C@H](CO)Cc3ccccc3)cc2)Cc2ccccn2)cc1` [Example 87] yielded an IC50 (CXCR3 [1]) of 17000 nM and an IC50 (CXCR3 [2]) of 760 nM.

`CCOc1ccc(S(=O)(=O)N(Cc2ccc(C(=O)N[C@H]3[C@@H]4CN(C(=O)OC(C)(C)C)C[C@@H]43)cc2)Cc2cccnc2)cc1` [Example 94] was tested, and the IC50 (CXCR3 [1]) was 2000 nM and the IC50 (CXCR3 [2]) was 260 nM.

In the case of `N#Cc1ccc(S(=O)(=O)N(Cc2ccc(C(=O)NCCc3ccc(S(N)(=O)=O)cc3)cc2)Cc2ccccn2)cc1` [Example 99], the IC50 (CXCR3 [1]) is reported as 1450 nM and the IC50 (CXCR3 [2]) is reported as 1030 nM.

Work on `N#Cc1ccc(S(=O)(=O)N(Cc2ccc(C(=O)N[C@@H](Cc3ccccc3)C(N)=O)cc2)Cc2ccccn2)cc1` [Example 100] yielded an IC50 (CXCR3 [1]) of 200 nM and an IC50 (CXCR3 [2]) of 630 nM.

For `CC(C)(C)OC(=O)N1C[C@@H]2[C@H](C1)[C@H]2NC(=O)c1ccc(CN(Cc2ccccn2)S(=O)(=O)c2ccc(Cl)cc2)cc1` [Example 105], the IC50 (CXCR3 [1]) was 20 nM and the IC50 (CXCR3 [2]) was 70 nM.

For `CC(C)(C)OC(=O)N1C[C@@H]2[C@H](C1)[C@H]2NC(=O)c1ccc(CN(Cc2ccccc2)S(=O)(=O)c2ccc(Cl)cc2)cc1` [Example 106], the IC50 (CXCR3 [1]) was 300 nM and the IC50 (CXCR3 [2]) was 510 nM.

Compound `CCOc1ccc(S(=O)(=O)N(Cc2ccc(C(=O)N[C@H]3[C@@H]4CN(C(C)=O)C[C@@H]43)cc2)Cc2ccccn2)cc1` [Example 107] has an IC50 (CXCR3 [1]) of 5500 nM and an IC50 (CXCR3 [2]) of 2070 nM.

For `N#Cc1ccc(S(=O)(=O)N(Cc2ccc(C(=O)NCC(O)c3ccccc3)cc2)Cc2cccnc2)cc1` (stereo not drawn) [Example 109], the IC50 (CXCR3 [1]) was 750 nM and the IC50 (CXCR3 [2]) was 130 nM.

For `N#Cc1ccc(S(=O)(=O)N(Cc2ccc(C(=O)NCCc3cccc(Cl)c3)cc2)Cc2cccnc2)cc1` [Example 110], the IC50 (CXCR3 [1]) was 750 nM and the IC50 (CXCR3 [2]) was 390 nM.

`N#Cc1ccc(S(=O)(=O)N(Cc2ccc(C(=O)NC3(c4ccccc4)CC3)cc2)Cc2cccnc2)cc1` [Example 113] was tested, and the IC50 (CXCR3 [1]) was 320 nM and the IC50 (CXCR3 [2]) was 1300 nM.

`N#Cc1ccc(S(=O)(=O)N(Cc2ccc(C(=O)NC(CO)C(O)c3ccccc3)cc2)Cc2cccnc2)cc1` (stereo not drawn) [Example 114] gave an IC50 (CXCR3 [1]) of 2000 nM and an IC50 (CXCR3 [2]) of 2500 nM.

In the case of `CC(=O)N1C[C@@H]2[C@H](C1)[C@H]2NC(=O)c1ccc(CN(Cc2ccccc2)S(=O)(=O)c2ccc(Cl)cc2)cc1` [Example 118], the IC50 (CXCR3 [1]) is reported as 3000 nM and the IC50 (CXCR3 [2]) is reported as 2610 nM.

`CC(=O)N1C[C@@H]2[C@H](C1)[C@H]2NC(=O)c1ccc(CN(Cc2ccccn2)S(=O)(=O)c2ccc(C#N)cc2)cc1` [Example 119] showed an IC50 (CXCR3 [1]) of 870 nM and an IC50 (CXCR3 [2]) of 2140 nM.

For `O=S(=O)(c1ccc(OC(F)(F)F)cc1)N(Cc1ccc(-c2nnn[nH]2)cc1)Cc1ccccn1` [Example 120], the IC50 (CXCR3 [1]) was 200 nM and the IC50 (CXCR3 [2]) was 4470 nM.

`O=S(=O)(c1ccc(Cl)cc1)N(Cc1ccccc1)Cc1ccc(-c2nnn[nH]2)cc1` [Example 121] gave an IC50 (CXCR3 [1]) of 3000 nM and an IC50 (CXCR3 [2]) of 3890 nM.

`O=C(NC1(c2cccc(Cl)c2)CC1)c1ccc(CN(Cc2ccccn2)S(=O)(=O)c2ccc(Cl)cc2)cc1` [Example 122] was tested, and the IC50 (CXCR3 [1]) was 600 nM and the IC50 (CXCR3 [2]) was 240 nM.

`N#Cc1ccc(S(=O)(=O)N(Cc2ccc(C(=O)NC3(c4cccc(Cl)c4)CC3)cc2)Cc2ccccn2)cc1` [Example 123] showed an IC50 (CXCR3 [1]) of 300 nM and an IC50 (CXCR3 [2]) of 60 nM.

Work on `CCOc1ccc(S(=O)(=O)N(Cc2ccc(C(=O)NC3(c4cccc(Cl)c4)CC3)cc2)Cc2ccccn2)cc1` [Example 124] yielded an IC50 (CXCR3 [1]) of 500 nM and an IC50 (CXCR3 [2]) of 160 nM.

`O=C(NC1(c2ccc(Cl)cc2)CC1)c1ccc(CN(Cc2ccccn2)S(=O)(=O)c2ccc(Cl)cc2)cc1` [Example 125] showed an IC50 (CXCR3 [1]) of 400 nM and an IC50 (CXCR3 [2]) of 350 nM.

`N#Cc1ccc(S(=O)(=O)N(Cc2ccc(C(=O)NC3(c4ccc(Cl)cc4)CC3)cc2)Cc2ccccn2)cc1` [Example 126] showed an IC50 (CXCR3 [1]) of 700 nM and an IC50 (CXCR3 [2]) of 170 nM.

`CCOc1ccc(S(=O)(=O)N(Cc2ccc(C(=O)NC3(c4ccc(Cl)cc4)CC3)cc2)Cc2ccccn2)cc1` [Example 127] was tested, and the IC50 (CXCR3 [1]) was 500 nM and the IC50 (CXCR3 [2]) was 380 nM.

For `COC(=O)c1ccc(CNC(=O)c2ccc(CN(Cc3ccccn3)S(=O)(=O)c3ccc(Cl)cc3)cc2)cc1` [Example 132], the IC50 (CXCR3 [1]) was 900 nM and the IC50 (CXCR3 [2]) was 270 nM.

`O=C(NCC1CC1)c1ccc(CN(Cc2cccc[n+]2[O-])S(=O)(=O)c2ccc(Cl)cc2)cc1` [Example 134, 4-{[(4-Chloro-benzenesulfonyl)-(1-oxy-pyridin-2-ylmethyl)-amino]-methyl}-N-cyclopropylmethyl-benzamide] showed an IC50 (CXCR3 [2]) of 2980 nM.

In the case of `N#Cc1ccc(S(=O)(=O)N(Cc2ccc(C(=O)NCc3ccccn3)cc2)Cc2ccccn2)cc1` [Example 135], the IC50 (CXCR3 [1]) is reported as 900 nM and the IC50 (CXCR3 [2]) is reported as 750 nM.

Compound `N#Cc1ccc(S(=O)(=O)N(Cc2ccc(C(=O)NCc3cccnc3)cc2)Cc2ccccn2)cc1` [Example 136] has an IC50 (CXCR3 [1]) of 8000 nM and an IC50 (CXCR3 [2]) of 930 nM.

`N#Cc1ccc(S(=O)(=O)N(Cc2ccc(C(=O)NCc3ccncc3)cc2)Cc2ccccn2)cc1` [Example 137] gave an IC50 (CXCR3 [1]) of 3000 nM and an IC50 (CXCR3 [2]) of 4310 nM.

`N#Cc1ccc(S(=O)(=O)N(Cc2ccc(C(=O)NCc3ccccc3)cc2)Cc2ccccn2)cc1` [Example 138] was tested, and the IC50 (CXCR3 [1]) was 100 nM and the IC50 (CXCR3 [2]) was 60 nM.

`Cc1nnc(CNC(=O)c2ccc(CN(Cc3ccccn3)S(=O)(=O)c3ccc(C#N)cc3)cc2)o1` [Example 142] showed an IC50 (CXCR3 [1]) of 10000 nM and an IC50 (CXCR3 [2]) of 4180 nM.

Compound `Cn1c(CNC(=O)c2ccc(CN(Cc3ccccn3)S(=O)(=O)c3ccc(C#N)cc3)cc2)nc2ccccc21` [Example 143] has an IC50 (CXCR3 [1]) of 400 nM and an IC50 (CXCR3 [2]) of 1000 nM.

`COC(=O)[C@@H](Cc1ccccc1)NC(=O)c1ccc(CN(Cc2ccccn2)S(=O)(=O)c2ccc(Cl)cc2)cc1` [Example 145] showed an IC50 (CXCR3 [1]) of 2000 nM and an IC50 (CXCR3 [2]) of 400 nM.

With `C[C@@H](c1ccc(NC(=O)C2(c3ccccc3)CC2)cc1)N(Cc1ccccn1)S(=O)(=O)c1ccc(Cl)cc1` [Example 164] the IC50 (CXCR3 [2]) was 4270 nM.

`N#Cc1ccc(S(=O)(=O)N(Cc2ccccn2)C2(c3ccc(C(=O)NC4(c5ccccc5)CC4)cc3)CC2)cc1` [Example 176] showed an IC50 (CXCR3 [2]) of 4450 nM.
